Patent US12258328B2, “6-membered heteroaryl-containing aminopyridine compounds as EGFR inhibitors” (YUHAN CORPORATION, priority 2021, dated 2025)
Read-outs that look alike come from different tables or passages of the source.

Tests used:
EGFR del19/T790M/C797S = EGFR del19/T790M/C797S (Homo sapiens, UniProt P00533, C797S/DEL746-750/T790M); assay: Biochemical EGFR kinase assay (Lance Ultra TR-FRET), triple mutant del19/T790M/C797S
Method in brief: (§1)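 Step 1: compound in kinase buffer, 0.003–10 μM. Step 2: kinase reaction 1 h at room temperature. Step 4: TR-FRET read at 615/665 nm; IC50 calculated.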

EGFR L858R/T790M/C797S = EGFR L858R/T790M/C797S (Homo sapiens, UniProt P00533, C797S/L858R/T790M); assay: Biochemical EGFR kinase assay (Lance Ultra TR-FRET), triple mutant L858R/T790M/C797S
Method in brief: as §1

EGFR wildtype = EGFR wildtype (Homo sapiens, UniProt P00533); assay: Biochemical EGFR kinase assay (Lance Ultra TR-FRET), wildtype
Method in brief: as §1

EGFR del19/C797S = EGFR del19/C797S (Homo sapiens, UniProt P00533, C797S/DEL746-750); assay: Biochemical EGFR kinase assay (Lance Ultra TR-FRET), double mutant del19/C797S
Method in brief: as §1

EGFR L858R/C797S = EGFR L858R/C797S (Homo sapiens, UniProt P00533, C797S/L858R); assay: Biochemical EGFR kinase assay (Lance Ultra TR-FRET), double mutant L858R/C797S
Method in brief: as §1

[1] = IC50 del19/T790M/C797S (nM) 100 μM ATP, 100 μM ATP
[2] = Km ATP, read-out: IC50 del19/T790M/C797S (nM) Km ATP
[3] = IC50 L858R/T790M/C797S (nM) 100 μM ATP, 100 μM ATP
[4] = Km ATP, read-out: IC50 L858R/T790M/C797S (nM) Km ATP
[5] = IC50 WT (nM) 100 μM ATP, 100 μM ATP
[6] = Km ATP, read-out: IC50 WT (nM) Km ATP
[7] = IC50 del19/C797S (nM) 100 μM ATP, 100 μM ATP
[8] = Km ATP, read-out: IC50 del19/C797S (nM) Km ATP
[9] = IC50 L858R/C797S (nM) 100 μM ATP, 100 μM ATP
[10] = Km ATP, read-out: IC50 L858R/C797S (nM) Km ATP
[11] = ATP at Km, read-out: IC50 del19/T790M/C797S, Km ATP
[12] = IC50 del19/T790M/C797S, 100 μM ATP
[13] = ATP at Km, read-out: IC50 L858R/T790M/C797S, Km ATP
[14] = IC50 L858R/T790M/C797S, 100 μM ATP
[15] = ATP at Km, read-out: IC50 del19/C797S, Km ATP
[16] = ATP at Km, read-out: IC50 L858R/C797S, Km ATP
[17] = ATP at Km, read-out: IC50 WT, Km ATP

Sequence of EGFR del19/T790M/C797S (P00533 with tags, fused parts or gaps DEL746-750/T790M/C797S): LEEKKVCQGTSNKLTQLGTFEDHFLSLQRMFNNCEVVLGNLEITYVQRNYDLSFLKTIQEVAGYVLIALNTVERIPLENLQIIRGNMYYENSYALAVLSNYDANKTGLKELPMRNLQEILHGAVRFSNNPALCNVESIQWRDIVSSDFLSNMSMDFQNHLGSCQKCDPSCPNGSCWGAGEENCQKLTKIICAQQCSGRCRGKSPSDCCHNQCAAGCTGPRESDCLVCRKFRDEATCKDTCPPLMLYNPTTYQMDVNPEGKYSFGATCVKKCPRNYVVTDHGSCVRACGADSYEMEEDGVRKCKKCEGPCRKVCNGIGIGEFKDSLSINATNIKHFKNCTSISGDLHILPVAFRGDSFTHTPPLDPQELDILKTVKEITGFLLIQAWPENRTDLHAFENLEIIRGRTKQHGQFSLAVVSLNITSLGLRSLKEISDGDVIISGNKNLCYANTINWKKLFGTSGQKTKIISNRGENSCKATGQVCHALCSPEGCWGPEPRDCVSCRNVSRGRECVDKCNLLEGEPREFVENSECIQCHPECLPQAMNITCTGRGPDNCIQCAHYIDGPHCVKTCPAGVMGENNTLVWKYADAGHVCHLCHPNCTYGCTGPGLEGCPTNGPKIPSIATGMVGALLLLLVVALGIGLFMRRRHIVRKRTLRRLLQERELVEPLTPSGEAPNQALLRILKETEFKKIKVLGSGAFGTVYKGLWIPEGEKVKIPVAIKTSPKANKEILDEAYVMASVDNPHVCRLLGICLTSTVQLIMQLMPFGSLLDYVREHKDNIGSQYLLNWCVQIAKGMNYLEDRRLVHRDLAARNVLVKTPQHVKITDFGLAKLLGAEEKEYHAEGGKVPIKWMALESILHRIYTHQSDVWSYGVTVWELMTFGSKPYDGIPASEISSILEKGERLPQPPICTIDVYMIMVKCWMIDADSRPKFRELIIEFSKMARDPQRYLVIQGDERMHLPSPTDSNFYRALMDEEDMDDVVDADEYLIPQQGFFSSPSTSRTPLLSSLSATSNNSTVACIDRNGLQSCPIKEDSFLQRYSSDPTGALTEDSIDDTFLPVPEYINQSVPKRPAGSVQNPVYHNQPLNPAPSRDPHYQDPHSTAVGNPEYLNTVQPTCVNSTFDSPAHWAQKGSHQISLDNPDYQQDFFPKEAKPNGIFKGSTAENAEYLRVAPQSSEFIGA
Sequence of EGFR wildtype (P00533 25-1210): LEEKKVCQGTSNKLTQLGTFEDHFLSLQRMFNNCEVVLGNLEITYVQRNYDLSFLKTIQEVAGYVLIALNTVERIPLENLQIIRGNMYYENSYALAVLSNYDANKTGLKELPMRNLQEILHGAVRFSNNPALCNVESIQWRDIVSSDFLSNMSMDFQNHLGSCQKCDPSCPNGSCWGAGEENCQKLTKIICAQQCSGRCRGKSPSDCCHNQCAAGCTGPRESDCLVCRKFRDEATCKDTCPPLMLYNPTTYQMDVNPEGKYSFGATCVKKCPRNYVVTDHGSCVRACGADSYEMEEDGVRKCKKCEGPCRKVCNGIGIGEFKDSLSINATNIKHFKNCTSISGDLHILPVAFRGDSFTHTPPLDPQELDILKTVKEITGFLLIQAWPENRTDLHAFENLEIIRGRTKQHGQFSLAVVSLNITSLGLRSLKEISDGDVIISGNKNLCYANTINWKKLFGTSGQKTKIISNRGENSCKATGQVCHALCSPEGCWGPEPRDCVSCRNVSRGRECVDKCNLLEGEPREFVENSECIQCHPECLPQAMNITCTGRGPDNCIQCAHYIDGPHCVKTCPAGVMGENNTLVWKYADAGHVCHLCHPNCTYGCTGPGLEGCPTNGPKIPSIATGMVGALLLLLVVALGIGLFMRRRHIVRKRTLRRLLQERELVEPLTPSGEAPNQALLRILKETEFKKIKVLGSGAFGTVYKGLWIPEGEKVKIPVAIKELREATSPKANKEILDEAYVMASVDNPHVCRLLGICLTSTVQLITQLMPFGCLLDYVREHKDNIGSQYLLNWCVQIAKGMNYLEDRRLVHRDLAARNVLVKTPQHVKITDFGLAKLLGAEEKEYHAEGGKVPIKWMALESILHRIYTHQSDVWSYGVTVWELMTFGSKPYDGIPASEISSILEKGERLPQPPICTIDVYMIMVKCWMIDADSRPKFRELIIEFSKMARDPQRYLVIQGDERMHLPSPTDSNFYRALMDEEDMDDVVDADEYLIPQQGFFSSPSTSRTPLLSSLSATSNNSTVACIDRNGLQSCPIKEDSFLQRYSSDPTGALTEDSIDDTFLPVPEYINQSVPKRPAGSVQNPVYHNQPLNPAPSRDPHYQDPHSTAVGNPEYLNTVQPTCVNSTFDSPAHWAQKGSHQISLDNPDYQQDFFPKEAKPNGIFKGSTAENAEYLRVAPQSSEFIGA
Sequence of EGFR del19/C797S (P00533 with tags, fused parts or gaps DEL746-750/C797S): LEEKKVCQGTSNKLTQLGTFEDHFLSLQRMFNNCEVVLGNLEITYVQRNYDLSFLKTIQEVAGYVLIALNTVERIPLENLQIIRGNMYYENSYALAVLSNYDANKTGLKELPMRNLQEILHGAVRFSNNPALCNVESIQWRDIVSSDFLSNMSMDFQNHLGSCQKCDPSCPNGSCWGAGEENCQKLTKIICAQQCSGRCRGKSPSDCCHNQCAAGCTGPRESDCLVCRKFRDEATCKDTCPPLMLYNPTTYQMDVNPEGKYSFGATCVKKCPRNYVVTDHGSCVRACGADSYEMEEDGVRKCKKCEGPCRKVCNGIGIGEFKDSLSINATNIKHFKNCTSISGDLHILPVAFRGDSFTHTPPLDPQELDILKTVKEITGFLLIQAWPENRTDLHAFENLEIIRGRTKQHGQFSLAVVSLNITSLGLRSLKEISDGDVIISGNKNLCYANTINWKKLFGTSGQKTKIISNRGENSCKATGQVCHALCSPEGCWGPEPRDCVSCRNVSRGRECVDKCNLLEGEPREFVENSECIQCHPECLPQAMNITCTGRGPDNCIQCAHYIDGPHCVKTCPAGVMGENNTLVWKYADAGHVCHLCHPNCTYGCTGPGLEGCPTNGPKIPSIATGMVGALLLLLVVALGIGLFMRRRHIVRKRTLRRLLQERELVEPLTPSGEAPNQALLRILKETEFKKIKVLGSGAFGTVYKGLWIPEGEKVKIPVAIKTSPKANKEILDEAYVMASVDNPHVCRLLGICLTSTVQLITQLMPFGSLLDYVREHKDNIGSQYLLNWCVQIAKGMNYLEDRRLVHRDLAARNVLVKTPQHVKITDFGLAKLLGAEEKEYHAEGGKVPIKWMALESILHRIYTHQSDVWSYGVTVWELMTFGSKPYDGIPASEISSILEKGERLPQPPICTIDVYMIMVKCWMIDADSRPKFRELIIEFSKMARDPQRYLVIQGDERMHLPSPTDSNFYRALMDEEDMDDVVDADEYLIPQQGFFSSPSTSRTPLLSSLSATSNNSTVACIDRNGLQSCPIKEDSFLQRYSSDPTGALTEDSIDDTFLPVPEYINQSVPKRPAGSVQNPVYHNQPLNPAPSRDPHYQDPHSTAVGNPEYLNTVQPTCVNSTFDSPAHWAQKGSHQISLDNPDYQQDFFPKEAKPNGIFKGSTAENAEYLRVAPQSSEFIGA
Sequence of EGFR L858R/T790M/C797S (P00533 25-1210 T790M/C797S/L858R): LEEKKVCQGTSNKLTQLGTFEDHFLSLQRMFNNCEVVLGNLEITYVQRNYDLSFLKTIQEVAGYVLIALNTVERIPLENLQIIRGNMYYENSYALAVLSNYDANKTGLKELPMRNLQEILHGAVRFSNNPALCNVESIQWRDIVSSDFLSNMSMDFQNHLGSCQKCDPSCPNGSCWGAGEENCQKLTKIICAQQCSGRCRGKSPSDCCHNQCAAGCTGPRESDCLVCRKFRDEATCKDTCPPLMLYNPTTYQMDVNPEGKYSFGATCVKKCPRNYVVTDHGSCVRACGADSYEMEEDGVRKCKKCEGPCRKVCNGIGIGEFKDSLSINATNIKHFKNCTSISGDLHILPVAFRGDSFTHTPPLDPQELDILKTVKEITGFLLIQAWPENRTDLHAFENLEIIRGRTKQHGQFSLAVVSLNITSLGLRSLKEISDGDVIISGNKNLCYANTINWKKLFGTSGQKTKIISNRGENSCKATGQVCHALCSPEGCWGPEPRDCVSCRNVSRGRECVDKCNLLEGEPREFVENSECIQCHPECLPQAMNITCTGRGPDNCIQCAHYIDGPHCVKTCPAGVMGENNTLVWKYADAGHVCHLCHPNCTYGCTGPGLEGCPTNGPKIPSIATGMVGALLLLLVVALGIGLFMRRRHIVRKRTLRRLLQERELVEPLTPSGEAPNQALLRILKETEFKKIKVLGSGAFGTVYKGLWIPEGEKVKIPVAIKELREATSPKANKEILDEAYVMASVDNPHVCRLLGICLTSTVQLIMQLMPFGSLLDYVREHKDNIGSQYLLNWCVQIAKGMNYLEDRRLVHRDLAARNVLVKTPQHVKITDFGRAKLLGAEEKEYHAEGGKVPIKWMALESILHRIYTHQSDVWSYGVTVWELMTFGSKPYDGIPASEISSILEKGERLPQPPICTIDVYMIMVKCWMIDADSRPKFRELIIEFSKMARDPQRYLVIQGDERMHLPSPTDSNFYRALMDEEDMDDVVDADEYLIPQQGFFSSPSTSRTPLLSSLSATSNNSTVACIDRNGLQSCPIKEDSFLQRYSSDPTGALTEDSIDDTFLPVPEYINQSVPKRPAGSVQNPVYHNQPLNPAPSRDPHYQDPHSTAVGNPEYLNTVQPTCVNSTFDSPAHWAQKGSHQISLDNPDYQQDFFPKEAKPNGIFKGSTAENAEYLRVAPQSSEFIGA

| SMILES | IC50 (EGFR del19/T790M/C797S; [1]) [nM] | IC50 (EGFR del19/T790M/C797S; [2]) [nM] | IC50 (EGFR L858R/T790M/C797S; [3]) [nM] | IC50 (EGFR L858R/T790M/C797S; [4]) [nM] | IC50 (EGFR wildtype; [5]) [nM] | IC50 (EGFR wildtype; [6]) [nM] | IC50 (EGFR del19/C797S; [7]) [nM] | IC50 (EGFR del19/C797S; [8]) [nM] | IC50 (EGFR L858R/C797S; [9]) [nM] | IC50 (EGFR L858R/C797S; [10]) [nM] | IC50 (EGFR del19/T790M/C797S; [11]) [nM] | IC50 (EGFR del19/T790M/C797S; [12]) [nM] | IC50 (EGFR L858R/T790M/C797S; [13]) [nM] | IC50 (EGFR L858R/T790M/C797S; [14]) [nM] | IC50 (EGFR wildtype; IC50 WT, 100 μM ATP) [nM] | IC50 (EGFR del19/C797S; [15]) [nM] | IC50 (EGFR del19/C797S; IC50 del19/C797S, 100 μM ATP) [nM] | IC50 (EGFR L858R/C797S; [16]) [nM] | IC50 (EGFR L858R/C797S; IC50 L858R/C797S, 100 μM ATP) [nM] | IC50 (EGFR wildtype; [17]) [nM] |
| --- | --- | --- | --- | --- | --- | --- | --- | --- | --- | --- | --- | --- | --- | --- | --- | --- | --- | --- | --- | --- |
| C[C@]1(O)CC[C@@H](Nc2cc(Nc3ccnc(-c4cnn(S(=O)(=O)C5CC5)c4)n3)ncc2-c2ccc(N3CCCC3)cn2)CC1 [Example 80, (1s,4s)-4-((6′-((2-(1-(Cyclopropylsulfonyl)-1H-pyrazol-4-yl)pyrimidin-4-yl)amino)-5-(pyrrolidin-1-yl)-[2,3′-bipyridin]-4′-yl)amino)-1-methylcyclohexan-1-ol] | 6.2 | 3.8 | 6.3 | 2.8 | 4410 | 11.4 | 8.4 | 2.5 | 11.1 | 2.3 |  |  |  |  |  |  |  |  |  |  |
| O=S(=O)(C1CC1)n1cc(-c2nccc(Nc3cc(N[C@H]4CC[C@@H](CO)CC4)c(-c4ccc(CN5CCC(O)CC5)cn4)cn3)n2)cn1 [Example 99, 1-((6′-((2-(1-(Cyclopropylsulfonyl)-1H-pyrazol-4-yl)pyrimidin-4-yl)amino)-4′-(((1s,4s)-4-(hydroxymethyl)cyclohexyl)amino)-[2,3′-bipyridin]-5-yl)methyl) piperidin-4-ol] | 0.1 | 0.1 | 0.1 | 0.04 | 61.5 | 0.3 | 0.3 | 0.3 | 0.7 | 0.1 |  |  |  |  |  |  |  |  |  |  |
| O=S(=O)(C1CC1)n1cc(-c2nccc(Nc3cc(N[C@H]4CC[C@](O)(CO)CC4)c(-c4ccccn4)cn3)n2)cn1 [Example 37, (1s,4s)-4-((6′-((2-(1-(Cyclopropylsulfonyl)-1H-pyrazol-4-yl)pyrimidin-4-yl)amino)-[2,3′-bipyridin]-4′-yl)amino)-1-(hydroxymethyl)cyclohexan-1-ol] | 0.2 | 0.2 | 0.3 | 0.1 | > 10000 | 6.6 | 1.1 | 0.7 | 21.3 | 0.7 |  |  |  |  |  |  |  |  |  |  |
| CC(C)(O)c1ccc(-c2cnc(Nc3ccnc(-c4cnn(S(=O)(=O)C5CC5)c4)n3)cc2N[C@H]2CC[C@@](C)(O)CC2)nc1 [Example 168, (1s,4s)-4-((6′-((2-(1-(Cyclopropylsulfonyl)-1H-pyrazol-4-yl)pyrimidin-4-yl)amino)-5-(2-hydroxypropan-2-yl)-[2,3′-bipyridin]-4′-yl)amino)-1-methylcyclohexan-1-ol] |  |  |  |  |  |  |  |  |  |  | 0.4 | 0.3 | 0.2 | 0.2 | 92.2 | 0.2 | 0.4 | 0.2 | 0.5 |  |
| C[C@]1(O)CC[C@@H](Nc2cc(Nc3ccnc(-c4cnn(S(=O)(=O)C5CC5)c4)n3)ncc2-c2ccc(N3CCOCC3)cn2)CC1 [Example 38, (1s,4s)-4-((6′-((2-(1-(Cyclopropylsulfonyl)-1H-pyrazol-4-yl)pyrimidin-4-yl)amino)-5-morpholino-[2,3′-bipyridin]-4′-yl)amino)-1-methylcyclohexan-1-ol] | 0.4 |  | 0.7 | 0.2 | 1430 |  | 0.6 | 0.3 | 4.3 | 0.9 |  |  |  |  |  |  |  |  |  |  |
| CN1CCC(Oc2ccc(-c3cnc(Nc4ccnc(-c5cnn(S(=O)(=O)C6CC6)c5)n4)cc3NC3CCC(F)(CO)CC3)nc2)CC1 (stereo not drawn) [Example 259, (4-((6′-((2-(1-(Cyclopropylsulfonyl)-1H-pyrazol-4-yl)pyrimidin-4-yl)amino)-5-((1-methylpiperidin-4-yl)oxy)-[2,3′-bipyridin]-4′-yl)amino)-1-fluorocyclohexyl)methanol] |  |  |  |  |  |  |  |  |  |  | 1 |  | 0.4 |  |  | 1.9 |  | 0.2 |  | 9 |
| CN(C)C[C@H]1CC[C@@H](Nc2cc(Nc3ccnc(-c4cnn(S(=O)(=O)C5CC5)c4)n3)ncc2-c2cc(C(C)(C)O)ccn2)CC1 [Example 110, 2-(6′-((2-(1-(Cyclopropylsulfonyl)-1H-pyrazol-4-yl)pyrimidin-4-yl)amino)-4′-(((1s,4s)-4-((dimethylamino)methyl)cyclohexyl)amino)-[2,3′-bipyridin]-4-yl)propan-2-ol] | 0.2 | 0.1 | 0.1 | 0.1 | 178 | 0.9 | 0.3 | 0.3 | 0.5 | 0.04 |  |  |  |  |  |  |  |  |  |  |
| CC(O)c1cccc(-c2cnc(Nc3ccnc(-c4cnn(S(=O)(=O)C5CC5)c4)n3)cc2NC2CCC(C)(O)CC2)n1 (stereo not drawn) [Example 23, (1s,4s)-4-((6′-((2-(1-(Cyclopropylsulfonyl)-1H-pyrazol-4-yl)pyrimidin-4-yl)amino)-6-(1-hydroxyethyl)-[2,3′-bipyridin]-4′-yl)amino)-1-methylcyclohexan-1-ol] | 1.1 | 1.6 | 1 |  | > 10000 | 13.7 | 5 | 1.8 | 6.2 | 0.6 |  |  |  |  |  |  |  |  |  |  |
| CC(C)(O)c1ccc(-c2cnc(Nc3ccnc(-c4cnn(S(=O)(=O)C5CC5)c4)n3)cc2N[C@H]2CC[C@@H](CO)CC2)nc1 [Example 170, 2-(6′-((2-(1-(Cyclopropylsulfonyl)-1H-pyrazol-4-yl)pyrimidin-4-yl)amino)-4′-(((1s,4s)-4-(hydroxymethyl)cyclohexyl)amino)-[2,3′-bipyridin]-5-yl)propan-2-ol] |  |  |  |  |  |  |  |  |  |  | 0.8 | 1.3 | 0.2 | 0.9 | 141 | 0.7 | 2 | 0.6 | 2.1 |  |
| CC(C)(O)[C@H]1CC[C@@H](Nc2cc(Nc3ccnc(-c4cnn(S(=O)(=O)C5CC5)c4)n3)ncc2-c2cnc(F)cn2)CC1 [Example 186, 2-((1s,4s)-4-((2-((2-(1-(Cyclopropylsulfonyl)-1H-pyrazol-4-yl)pyrimidin-4-yl)amino)-5-(5-fluoropyrazin-2-yl)pyridin-4-yl)amino)cyclohexyl)propan-2-ol] |  |  |  |  |  |  |  |  |  |  | 3.8 | 29 |  | 4.8 | > 10000 | 11.5 | 56.8 | 5.8 | 165 | 744 |
| CC(C)(O)[C@H]1CC[C@@H](Nc2cc(Nc3ccnc(-c4cnn(S(=O)(=O)C5CC5)c4)n3)ncc2-c2ccc(CN3CCOCC3)cn2)CC1 [Example 25, 2-((1s,4s)-4-((6′-((2-(1-(Cyclopropylsulfonyl)-1H-pyrazol-4-yl)pyrimidin-4-yl)amino)-5-(morpholinomethyl)-[2,3′-bipyridin]-4′-yl)amino)cyclohexyl)propan-2-ol] | 1.1 | 1 | 1.2 | 0.8 | 1830 | 1.9 | 0.5 | 0.5 | 2 | 0.3 |  |  |  |  |  |  |  |  |  |  |
